# Experimental data: patent US12313635B2, “Biomarker for thoracic aortic aneurysm” (THE REGENTS OF THE UNIVERSITY OF CALIFORNIA, priority 2018, dated 2025)
# What was measured:
# [1] = test system: Fbn1^C1039G/+ Marfan Syndrome (MFS) mice; test: Ultrasound imaging (echocardiography) of aortic root and abdominal aorta diameters; assay type: in vivo; settings: FA food (15 mg/kg/day from 4 weeks of age) vs chow diet
# Description: All experimental procedures were approved by the Institutional Animal Care and Usage committee at the University of California, Los Angeles (UCLA). Original heterozygous Fbn1^C1039G/+ male animals were purchased from Jackson Labs (Bar Harbor, ME, Strain B6.129-Fbn1^tm1Hcd/J, stock #012885). Heterozygous mice develop proximal aortic aneurysms, mitral valve thickenings, pulmonary alveolar septation defects, mild thoracic kyphosis, and skeletal myopathy, but 90% reportedly live to one year of age. This strain was backcrossed to C57BL/6 for more than nine generations by the donating laboratory^14. All pups were genotyped using PCR (FIG. 2) as per instructions by Jackson Labs.
# (§1) FA treatment started at 4 weeks of age, and lasted through the entire study period of 8 weeks till harvest.
# Animals were anesthetized with isoflurane (˜[…]), and secured onto a temperature controlled table to maintain temperature at 37° C. Hair from the abdomen and the chest were removed with a hair removal cream (Nair). […] All images were recorded and saved for later offline aortic dimension analysis.
# (§2) Four weeks old heterozygous Fbn1^C1039G/+ male animals were treated with TGFβ neutralizing antibody (anti-TGFβ, clone 1D11, Bio X Cell) or isotype (IgG, clone MOPC21, Bio X Cell) as previously shown^40. […] Aortic superoxide production and eNOS uncoupling activity were determined after 4 weeks injection as described above.
# eNOS = test: Aortic superoxide production and eNOS uncoupling activity (L-NAME-sensitive superoxide) by electron spin resonance; assay type: in vivo, mice
# Method: as §1
# Aortic superoxide was measured by ESR as previously described^19-22, 26-33. Briefly, freshly isolated aortas were homogenized on icein lysis buffer containing 1:100 protease inhibitor cocktail, and centrifuged at 12,000 g for 15 min. Protein content of the supernatant was determined using a protein assay kit (Bio-Rad, #500-0113, #500-0114, #500-0115). […]
# as §2
# Firstly, ESR was used to measure the aortic superoxide production with or without L-NAME, an inhibitor for NOS. If eNOS is functional and coupled, its inhibition by L-NAME will increase the measured superoxide due to lack of scavenging effects of NO on superoxide. However, if eNOS is dysfunctional and uncoupled, it produces superoxide and the inhibition with L-NAME will reduce measured superoxide.
# [2] = test system: NO bioavailability in aortic tissues; test: Aortic NO bioavailability by electron spin resonance; assay type: in vivo; settings: aortas of Fbn1^C1039G/+ mice, age 8 and 12 weeks, oral FA
# Method: FA treatment started at 4 weeks of age, and lasted through the entire study period of 8 weeks till harvest. Aortic N O production was also measured using ESR as previous described^19-22, 26-29, 32-34. Briefly, freshly isolated aortas were cut into 2 mm rings, and then incubated in freshly prepared NO specific spin trap Fe^2+(DETC)2 (0.5 mmol/L) in nitrogen bubbled, modified Krebs/HEPES buffer (as described above) at 37° C. for 60 min, in the presence of calcium ionophore A23187 (10 μmol/L). The aortic rings were then snap frozen in liquid nitrogen and loaded into a finger Dewarfor measurement with ESR. The instrument settings were as the following: Center field, 3440; Sweep width, 100 G: microwave frequency, 9.796 GHz; microwave power 13.26 mW; modulation amplitude, 9.82 G; 512 points of resolution; and receiver gain 356.
# H4B = test: Aortic and plasma tetrahydrobiopterin (H4B) levels by HPLC; assay type: in vivo; settings: Fbn1^+/+ and Fbn1^C1039G/+ mice, oral FA vs chow diet
# Method: as §1
# Aortic H4B and plasma H4B were measured using HPLC as previously described^19-22, 26, 27, 32, 33, 35-37. For the aorta, freshly isolated aortas were lysed in H4B lysis buffer (0.1 M phosphoric acid, 1 mM EDTA, 10 mM dl-dithiothreitol) and then centrifuged at 12,000 g for 3 min at 4° C. in the dark. For plasma, equal volumes of plasma and H4B lysis buffer were mixed and incubated on ice for 20 min in the dark and then centrifuged at 12,000 g for 3 min at 4° C. in the dark. The supernatant for both the aorta and plasma was subjected to oxidation in acidic (0.2 M trichloroacetic acid with 2.5% 12 and 10% KI) and alkalytic solutions (0.1 M NaOH with 0.9% 12 and 1.5% KI). After centrifugation, 10 μl of the supernatant was injected into a HPLC system equipped with a fluorescent detector (SHIMADZU AMERICA INC, Carlsbad, CA, USA). Excitation and emission wavelengths of 350 nm and 450 nm were used to detect H4B and its oxidized species. H4B concentration was calculated as previously described ^38, 39.
# DHFR [3] = test: Western blotting of DHFR and eNOS expression in aortic endothelial cells; assay type: in vivo, mice; settings: aortic ECs of Fbn1^+/+ and Fbn1^C1039G/+ animals after FA treatment
# Method: as §1
# Western blotting was performed following standard protocols, using 12.5% SDS/PAGE gel and nitrocellulose membranes. Primary antibodies and their dilutions used were: DHFR (1:500, Novus Biologicals, H00001719-MO1), β-actin (1:3000, Sigma-Aldrich, A2066), eNOS (1:2000, BD Transduction Laboratories, 610297), TGFβ (1:500, Abcam, ab92486), NOX4 (1:300, Novus Biologicals, NB110-58849SS), and GTPCH 1 (1:500, Abbiotec, 250680).
# Endothelial cells (ECs) were isolated from freshly prepared aortas, Western blot was used to detect DHFR expression in aortic ECs and HPLC was performed to assess DHFR activity in the isolated ECs and the denuded aortas of the Fbn1^+/+ and Fbn1^C1039G/+ animals. […] As shown in FIGS. 6D & 6E, DHFR activity was measured via HPLC from both the isolated ECs (FIG. 6D) and the denuded aortas (FIG. 6E).
# DHFR [4] = test: DHFR activity by HPLC in isolated ECs and denuded aortas; assay type: in vivo; settings: Fbn1^C1039G/+ and Fbn1^+/+ mice, oral FA treatment
# Method: as §1
# DHFR activity was measured from isolated EC or denuded aorticring lysates as previously described^19, 22, 26. Briefly, lysates were incubated in a DHFR assay buffer (0.1 mol/L potassium phosphate dibasic, 1 mmol/L DTT, 0.5 mmol/L KCl, 1 mmol/L EDTA, and 20 mmol/L sodium ascorbate at pH 7.4) with NADPH (200 μmol/L) and the substrate dihydrofolate (50 μmol/L) at 37° C. for 20 min in the dark. The product of the reaction, tetrahydrofolate (THF), was measured using a HPLC system (SHIMADZU AMERICA INC, Carlsbad, CA, USA) with a C-18 column (Alltech, Deerfield, MA, USA) using water based mobile phase consisting of 7% acetonitrile and 5 mmol/L of potassium phosphate dibasic at pH 2.3. The signal was detected using a fluorescent detector at 295 nm excitation and 365 nm emission. The THF content was calculated against a standard curve prepared using THF solutions in assay buffer. Data are presented as nmol production of THF per min per mg protein.
# [5] = test system: Ang II infused hph-1 mice and Ang II-infused apoE null mice; settings: cited from earlier work
structure (smiles),measurement,setting,value
"Nc1nc2ncc(CNc3ccc(C(=O)N[C@@H](CCC(=O)O)C(=O)O)cc3)nc2c(=O)[nH]1 [FA, folic acid]",size (diameter) of abdominal aortas,[1],substantially smaller
same,size (diameter) of aortic roots,[1],substantially smaller
same,L-NAME-sensitive superoxide production (eNOS uncoupling activity),"eNOS; aortas of Fbn1^C1039G/+ mice at 8 and 12 week old, oral FA",completely attenuated
same,superoxide production,"eNOS; aortas of Fbn1^C1039G/+ mice, FA diet",reduce superoxide production
same,NO bioavailability,[2],markedly improved
same,H4B levels in plasma,H4B,substantially restored
same,H4B levels in the aortas,H4B,substantially restored
same,expression of DHFR,DHFR [3],increased
same,DHFR activity in the denuded aortas,DHFR [4],substantially increased
same,DHFR activity in the isolated ECs,DHFR [4],substantially increased
same,AAA formation,"[5]; Ang II infused hph-1 mice and Ang II-infused apoE null mice, oral administration",completely or largely attenuated
same,plasma and tissue H4B levels,[5]; angiotensin II infused hph-1 and apoE null mice (AAA models),restored
